Activity calls are given as the source filed them.
Tests used:
Format in all cases: functional, cell-based
[1] = tested on: Vero; assay: Antiviral activity was evaluated against HSV-2 in Vero cells at concentration up to 10 ug/mL by plaque reduction assay; Inactive; conditions: Chlorocebus sabaeus
[2] = tested on: Vero; assay: Antiviral activity was evaluated against HSV-1 in Vero cells at concentration up to 10 ug/mL by plaque reduction assay; Inactive; conditions: Chlorocebus sabaeus
[3] = tested on: MT4; assay: […] was evaluated against HIV-1 in MT-4 cells at concentration up to 10 ug/mL by indirect immunofluorescence assay; Inactive; conditions: Homo sapiens

Measured: Activity

Cc1cn(N2CC[C@H](CO)[C@H]2CO)c(=O)[nH]c1=O
inactive: [1] | [2] | [3]

Nc1ncnc2c1ncn2N1CC[C@H](CO)[C@H]1CO
inactive: [1] | [2] | [3]
